Where two headings read alike, the source gives them in different places.
Tests used:
[1] = system: wheat leaf rust, Puccinia recondita; test: whole plant or invertebrate; assay type: in vivo; settings: foliar; for pest or weed control at 280.212 g/ha: read-out: % Control (without rain), foliar, 0.25 lb.; for pest or weed control at 1120.85 g/ha: read-out: % Control (without rain), foliar, 1 lb.
[2] = system: wheat leaf rust, Puccinia recondita; test: whole plant or invertebrate; assay type: in vivo; settings: foliar; for pest or weed control at 280.212 g/ha: read-out: % Control (with 1" of rain), foliar, 0.25 lb., 1" of rain; for pest or weed control at 1120.85 g/ha: read-out: % Control (with 1" of rain), foliar, 1 lb., 1" of rain

| SMILES | pest or weed control at 280.212 g/ha [1] [%] | pest or weed control at 1120.85 g/ha [1] [%] | pest or weed control at 280.212 g/ha [2] [%] | pest or weed control at 1120.85 g/ha [2] [%] |
| --- | --- | --- | --- | --- |
| Cn1c(S)nnc1-c1ccco1 [Example 90, 3-mercapto-4-methyl-5-(2-furyl)-1,2,4-triazole] | 0 | 28 | 80 | 87 |
| CCCCn1c(S)nnc1-c1ccco1 [Example 91, 3-mercapto-4-n-butyl-5-(2-furyl)-1,2,4-triazole] | 41 | 72 | 100 | 100 |
| Sc1nnc(-c2ccco2)n1-c1ccccc1 [Example 92, 3-mercapto-4-phenyl-5-(2-furyl)-1,2,4-triazole] | 100 | 81 | 100 | 87 |
| Cn1c(S)nnc1C(=O)O [Example 93, 3-mercapto-4-methyl-5-carboxy-1,2,4-triazole] | 65 | 94 | 0 | 0 |
| COC(=O)c1nnc(S)n1C [Example 96, 3-mercapto-4-methyl-5-methoxycarbonyl-1,2,4-triazole] | 90 | 98 | 0 | 5 |
| CCCCn1cnnc1SC [Example 102, 3-methylmercapto-4-n-butyl-1,2,4-triazole] | 100 | 100 | 51 | 51 |
| CCCCSc1nncn1CCCC [Example 103, 3-n-butylmercapto-4-n-butyl-1,2,4-triazole] | 50 | 90 | 50 | 80 |
| CCCCCCCCCCSc1nncn1CCCC [Example 104, 3-n-decylmercapto-4-butyl-1,2,4-triazole] | 80 | 98 | 45 | 98 |
| C=CCSc1nncn1CCCC [Example 105, 3-allylmercapto-4-n-butyl-1,2,4-triazole] | 50 | 95 | 50 | 90 |
| C=CCOCCSc1nncn1CCCC [Example 108, 3-(2-allyloxyethylmercapto)-4-n-butyl-1,2,4-triazole] | 35 | 85 | 25 | 40 |
| CCCCn1cnnc1SCCOc1ccccc1 [Example 109, 3-(2-phenoxyethylmercapto)-4-n-butyl-1,2,4-triazole] | 100 | 100 | 96 | 100 |
| CCCCn1cnnc1SC(C)=O [Example 115, 3-acetylmercapto-4-n-butyl-1,2,4-triazole] | 99 | 100 | 90 | 95 |
| CCCCn1cnnc1SC(=O)COC [Example 116, 3-methoxyacetylmercapto-4-n-butyl-1,2,4-triazole] | 100 | 100 | 95 | 99 |
| CCCCn1cnnc1SC(=O)CCC [Example 117, 3-butyrylmercapto-4-n-butyl-1,2,4-triazole] | 100 | 100 | 95 | 99 |
| CCCCn1cnnc1SC(=O)c1ccccc1Br [Example 118, 3-(2-bromobenzoylmercapto)-4-n-butyl-1,2,4-triazole] | 100 | 100 | 100 | 100 |
| CCCCn1cnnc1SC(=O)c1ccc(Br)cc1 [Example 119, 3-(4-bromobenzoylmercapto)-4-n-butyl-1,2,4-triazole] | 100 | 100 | 100 | 100 |
| CCCCn1cnnc1SC(=O)c1cc(Cl)cc(Cl)c1 [Example 120, 3-(3,5-dichlorobenzoylmercapto)-4-n-butyl-1,2,4-triazole] | 100 | 100 | 98 | 98 |
| CCCCn1cnnc1SC(=O)c1cccc([N+](=O)[O-])c1 [Example 122, 3-(3-nitrobenzoylmercapto)-4-n-butyl-1,2,4-triazole] | 100 | 100 | 100 | 100 |
| CCCCn1cnnc1SC(=O)c1cc(OC)c(OC)c(OC)c1 [Example 123, 3-(3,4,5-trimethoxybenzoylmercapto)-4-n-butyl-1,2,4-triazole] | 98 | 100 | 90 | 98 |

From patent US4120864A, “1,2,4-4H-triazole derivatives” (Rohm and Haas Company, priority 1972, dated 1978)
